From ChEMBL document CHEMBL3352474, “Design, synthesis and biological evaluation of FLT3 covalent inhibitors with a resorcylic acid core” (Bioorg Med Chem, 2014)
pIC50: −log10 of the molar value.

Legend:
[1] = Antiproliferative activity against human THP1 cells assessed as growth inhibition at 5 uM after 72 hrs by luminescent cell viability assay; format: functional; conditions: THP-1, 72 h, read-out: GI
[2] = Antiproliferative activity against human THP1 cells after 72 hrs by luminescent cell viability assay; format: functional, cell-based; conditions: THP-1, 72 h
[3] = test system: MV4-11; test: Antiproliferative activity against human MV4-11 cells assessed as growth inhibition at 5 uM after 72 hrs by luminescent cell viability assay; format: functional; conditions: MV4-11, 72 h, read-out: GI
[4] = test system: MV4-11; test: Antiproliferative activity against human MV4-11 cells after 72 hrs by luminescent cell viability assay; format: functional, cell-based; conditions: MV4-11, 72 h
[5] = biological target: T1, Receptor-type tyrosine-protein kinase FLT3 (Homo sapiens, UniProt P36888); test: Inhibition of recombinant FLT3 (unknown origin) by TR-FRET assay
T1 sequence (P36888 whole entry): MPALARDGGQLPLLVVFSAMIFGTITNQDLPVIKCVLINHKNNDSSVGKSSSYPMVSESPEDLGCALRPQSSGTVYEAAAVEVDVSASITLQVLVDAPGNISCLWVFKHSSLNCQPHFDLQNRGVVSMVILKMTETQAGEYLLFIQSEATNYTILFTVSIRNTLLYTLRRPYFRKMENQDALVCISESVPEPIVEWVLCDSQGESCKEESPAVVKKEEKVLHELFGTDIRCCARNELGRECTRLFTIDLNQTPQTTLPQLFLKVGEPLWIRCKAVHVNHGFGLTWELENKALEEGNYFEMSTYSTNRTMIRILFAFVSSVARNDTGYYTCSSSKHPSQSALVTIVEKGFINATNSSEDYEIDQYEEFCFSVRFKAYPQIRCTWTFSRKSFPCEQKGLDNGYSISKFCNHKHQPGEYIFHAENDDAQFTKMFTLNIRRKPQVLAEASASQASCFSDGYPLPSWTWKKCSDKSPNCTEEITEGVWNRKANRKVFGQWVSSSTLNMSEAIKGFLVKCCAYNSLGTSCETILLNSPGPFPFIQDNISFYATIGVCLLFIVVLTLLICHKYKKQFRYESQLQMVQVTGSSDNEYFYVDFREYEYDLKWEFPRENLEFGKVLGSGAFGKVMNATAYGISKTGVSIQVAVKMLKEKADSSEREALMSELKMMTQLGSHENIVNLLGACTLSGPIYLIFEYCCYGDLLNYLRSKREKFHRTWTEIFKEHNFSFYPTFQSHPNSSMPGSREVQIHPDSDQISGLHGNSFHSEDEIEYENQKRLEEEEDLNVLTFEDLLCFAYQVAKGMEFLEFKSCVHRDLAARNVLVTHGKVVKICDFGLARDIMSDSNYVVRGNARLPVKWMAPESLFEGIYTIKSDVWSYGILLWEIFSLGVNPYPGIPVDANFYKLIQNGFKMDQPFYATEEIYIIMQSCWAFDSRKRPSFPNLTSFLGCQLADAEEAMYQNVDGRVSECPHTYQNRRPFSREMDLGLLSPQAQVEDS

[6] = biological target: Receptor-type tyrosine-protein kinase FLT3 (Homo sapiens, UniProt P36888, D835Y); test: Inhibition of recombinant FLT3 D835Y mutant (unknown origin) by TR-FRET assay
[7] = biological target: Receptor-type tyrosine-protein kinase FLT3 (Homo sapiens, UniProt P36888, ITD); test: Inhibition of recombinant FLT3 ITD mutant (unknown origin) by RBC kinase assay
[8] = Antiproliferative activity against human HL60 cells assessed as growth inhibition at 5 uM after 72 hrs by luminescent cell viability assay; format: functional; conditions: HL-60, 72 h, read-out: GI
[9] = Antiproliferative activity against human HEK293T cells assessed as growth inhibition at 5 uM after 72 hrs by luminescent cell viability assay; format: cell-based, HEK-293T; conditions: read-out: GI
[10] = test system: K562; test: Antiproliferative activity against human K562 cells assessed as growth inhibition at 5 uM after 72 hrs by luminescent cell viability assay; format: functional; conditions: K562, 72 h, read-out: GI
[11] = biological target: MAP kinase-interacting serine/threonine-protein kinase 1 (Homo sapiens) (UniProt Q9BUB5); test: Inhibition of MNK1 (unknown origin) at 10 uM
MAP kinase-interacting serine/threonine-protein kinase 1 (Homo sapiens), sequence (Q9BUB5 whole entry, looked up): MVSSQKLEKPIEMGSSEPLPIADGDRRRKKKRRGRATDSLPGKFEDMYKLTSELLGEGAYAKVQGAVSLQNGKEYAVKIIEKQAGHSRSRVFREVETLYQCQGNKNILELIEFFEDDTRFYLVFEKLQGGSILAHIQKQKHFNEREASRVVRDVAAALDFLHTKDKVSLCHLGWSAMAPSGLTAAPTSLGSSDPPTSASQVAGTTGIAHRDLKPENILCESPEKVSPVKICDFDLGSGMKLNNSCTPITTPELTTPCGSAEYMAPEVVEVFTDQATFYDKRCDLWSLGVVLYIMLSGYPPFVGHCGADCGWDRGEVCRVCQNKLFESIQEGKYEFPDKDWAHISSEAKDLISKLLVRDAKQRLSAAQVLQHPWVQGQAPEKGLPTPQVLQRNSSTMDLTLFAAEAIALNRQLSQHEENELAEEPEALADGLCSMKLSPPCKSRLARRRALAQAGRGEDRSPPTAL

[12] = biological target: MAP kinase-interacting serine/threonine-protein kinase 2 (Homo sapiens) (UniProt Q9HBH9); test: Inhibition of MNK2 (unknown origin) at 10 uM
MAP kinase-interacting serine/threonine-protein kinase 2 (Homo sapiens), sequence (Q9HBH9 whole entry, looked up): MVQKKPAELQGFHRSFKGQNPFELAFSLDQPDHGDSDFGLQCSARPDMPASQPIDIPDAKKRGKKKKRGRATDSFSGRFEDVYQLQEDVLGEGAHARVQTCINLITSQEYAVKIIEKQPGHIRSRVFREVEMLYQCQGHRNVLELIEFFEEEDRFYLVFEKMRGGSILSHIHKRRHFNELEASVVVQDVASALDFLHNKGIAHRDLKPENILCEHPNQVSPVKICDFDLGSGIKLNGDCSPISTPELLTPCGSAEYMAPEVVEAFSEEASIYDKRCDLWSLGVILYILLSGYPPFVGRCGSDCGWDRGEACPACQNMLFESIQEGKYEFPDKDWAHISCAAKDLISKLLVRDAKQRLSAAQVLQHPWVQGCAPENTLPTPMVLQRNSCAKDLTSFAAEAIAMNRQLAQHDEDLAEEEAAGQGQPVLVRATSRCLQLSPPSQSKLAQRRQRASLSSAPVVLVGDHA

[13] = biological target: Receptor-type tyrosine-protein kinase FLT3 (Homo sapiens) (UniProt P36888)
Description: Binding affinity to FLT3 (unknown origin) assessed as dissociation half life

SMILES	pIC50 [4]	pIC50 [5]	pIC50 [6]	pIC50 [7]	inhibition [11]	inhibition [12]	T1/2 [13]	inhibition of growth at 5 µM [1]	pIC50 [2]	inhibition of growth at 5 µM [3]	inhibition of growth at 5 µM [8]	inhibition at 72 h, 5 µM [9]	inhibition of growth at 5 µM [10]
COc1cc(O)c(C(=O)OCC2CCCCC2)c(/C=C/CN2C(=O)C=CC2=O)c1	5.71	5.57	5.68	< 4.52	9.7%	0%	–	5.9%	5.11	99.8%	71%	6.9%	85.1%
COc1cc(O)c(C(=O)OC(C)C)c(CCCN2C(=O)C=CC2=O)c1	5.80	6.37	5.52	4.88	6.2%	2.4%	–	98.8%	5.17	99.8%	67.9%	13.4%	98.9%
COc1cc(O)c(C(=O)OCc2ccc(F)cc2)c(/C=C/CN2C(=O)C=CC2=O)c1	5.84	5.79	6.02	< 4.52	4.1%	0%	–	0%	5.13	99.7%	82.2%	37.9%	96.4%
CCN(CC)CCNC(=O)c1c(C)[nH]c(/C=C2\C(=O)Nc3ccc(F)cc32)c1C	–	–	–	–	–	–	11.3 min	–	–	–	–	–	–
COc1cc(O)c(C(=O)OCc2ccc(Br)cc2)c(/C=C/CN2C(=O)C=CC2=O)c1	6.00	5.72	5.76	< 4.52	4.3%	0%	–	0%	5.10	97.9%	36.7%	20.1%	28.7%
COc1cc(O)c(C(=O)OC(C)C)c(/C=C/CN2C(=O)C=CC2=O)c1	5.76	6.27	5.87	5.01	5.4%	4.1%	–	41.8%	5.14	99.8%	65.7%	8%	95.7%
CC(C)OC(=O)c1c(O)cc(OCCN2CCOCC2)cc1CCCN1C(=O)C=CC1=O	5.45	6.24	6.09	5.05	8.8%	1.8%	–	81.5%	5.27	99.8%	98.9%	13.3%	99.3%
COc1cc(O)c(C(=O)OCC(C)c2ccccc2)c(/C=C/CN2C(=O)C=CC2=O)c1 (stereo not given)	5.47	5.52	5.28	< 4.52	8.6%	0%	–	0%	< 5.00	99%	56%	0%	74.9%
C=CC(=O)NC/C=C/c1cc(OCCc2ccc(F)cc2)cc(O)c1C(=O)OC(C)C	5.35	< 4.52	< 4.52	5.08	5.6%	1.1%	–	23.2%	< 5.00	61.8%	12.2%	25.8%	18.5%

The remaining molecules from weak to strong by pIC50 [4], led by results:

pIC50 [4]	pIC50 [5]	pIC50 [6]	pIC50 [7]	inhibition [11]	inhibition [12]	T1/2 [13]	SMILES	inhibition of growth at 5 µM [1]	pIC50 [2]	inhibition of growth at 5 µM [3]	inhibition of growth at 5 µM [8]	inhibition at 72 h, 5 µM [9]	inhibition of growth at 5 µM [10]
5.33	4.97	4.92	5.65	5.6%	13.9%	–	C=CS(=O)(=O)NC/C=C/c1cc(OC)cc(O)c1C(=O)OC(C)C	19.9%	4.83	72.3%	16.6%	0.1%	36.2%
5.43	5.02	5.55	6.30	8%	6.5%	–	C=CC(=O)NC/C=C/c1cc(OCCCN2CCOCC2)cc(O)c1C(=O)OC(C)C	9.1%	4.68	73.9%	8.1%	26.5%	23%
5.67	5.47	5.44	4.66	6.7%	5%	–	COc1cc(/C=C/CN2C(=O)C=CC2=O)c(C(=O)OC(C)C)c(OC(C)=O)c1	3.3%	4.98	99.8%	87.9%	47.4%	99.2%
5.72	6.82	6.03	6.01	8%	3.1%	–	CC(C)OC(=O)c1c(O)cc(OCCCN2CCOCC2)cc1/C=C/CN1C(=O)C=CC1=O	62.5%	5.10	99.8%	89.1%	38.8%	95.9%
